Source: patent US8063048B2, “Acetylenyl-pyrazolo-pyrimidine derivatives” (Hoffmann-La Roche Inc., priority 2005, dated 2011)

Compound	melting point [°C]
CC(CO)(CO)NS(=O)(=O)c1cccc(C#Cc2cnn3c(C(F)F)cc(-c4ccc(C(F)(F)F)cc4)nc23)c1 [Example 33, 3-[7-Difluoromethyl-5-(4-trifluoromethyl-phenyl)-pyrazolo[1,5-a]pyrimidin-3-ylethynyl]-N-(2-hydroxy-1-hydroxymethyl-1-methyl-ethyl)-benzene sulfonamide]	172 to 174
Cc1ccc(C#Cc2cnn3c(C(F)(F)F)cc(-c4ccc(C(F)(F)F)cc4)nc23)cc1S(=O)(=O)NCCO [Example 34, N-(2-Hydroxy-ethyl)-2-methyl-5-[7-trifluoromethyl-5-(4-trifluoromethyl-phenyl)-pyrazolo[1,5-a]pyrimidin-3-ylethynyl]-benzenesulfonamide]	174 to 175
Cc1ccc(C#Cc2cnn3c(C(F)(F)F)cc(-c4ccc(C(F)(F)F)cc4)nc23)cc1S(N)(=O)=O [Example 35, 2-Methyl-5-[7-trifluoromethyl-5-(4-trifluoromethyl-phenyl)-pyrazolo[1,5-a]pyrimidin-3-ylethynyl]-benzenesulfonamide]	255 to 267
NS(=O)(=O)c1ccc(C#Cc2cnn3c(C(F)(F)F)cc(-c4ccc(C(F)(F)F)cc4)nc23)cc1 [Example 36, 4-[7-Trifluoromethyl-5-(4-trifluoromethyl-phenyl)-pyrazolo[1,5-a]pyrimidin-3-ylethynyl]-benzenesulfonamide]	266 to 267
O=S(=O)(O)c1cncc(C#Cc2cnn3c(C(F)(F)F)cc(-c4ccc(C(F)(F)F)cc4)nc23)c1 [Example 37, 5-[7-Trifluoromethyl-5-(4-trifluoromethyl-phenyl)-pyrazolo[1,5-a]pyrimidin-3-ylethynyl]-pyridine-3-sulfonic acid]	> 288
CS(=O)(=O)c1cncc(C#Cc2cnn3c(C(F)(F)F)cc(-c4ccc(C(F)(F)F)cc4)nc23)c1 [Example 38, 3-(5-Methanesulfonyl-pyridin-3-ylethynyl)-7-trifluoromethyl-5-(4-trifluoromethyl-phenyl)-pyrazolo[1,5-a]pyrimidine]	241 to 242
CS(=O)(=O)c1cccc(C#Cc2cnn3c(C(F)(F)F)cc(-c4ccc(C(F)(F)F)cc4)nc23)c1 [Example 40, 3-(3-Methanesulfonyl-phenylethynyl)-7-trifluoromethyl-5-(4-trifluoromethyl-phenyl)-pyrazolo[1,5-a]pyrimidine]	214
CCOc1cc(-c2cc(C(F)(F)F)n3ncc(C#Cc4cccc(S(=O)(=O)NC(C)(C)CO)c4)c3n2)ccc1C(F)(F)F [Example 41, 3-[5-(3-Ethoxy-4-trifluoromethyl-phenyl)-7-trifluoromethyl-pyrazolo[1,5-a]pyrimidin-3-ylethynyl]-N-(2-hydroxy-1,1-dimethyl-ethyl)-benzenesulfonamide]	209 to 211
NS(=O)(=O)c1cccc(C#Cc2cnn3c(C(F)F)cc(-c4ccc(C(F)(F)F)cc4)nc23)c1 [Example 42, 3-[7-Difluoromethyl-5-(4-trifluoromethyl-phenyl)-pyrazolo[1,5-a]pyrimidin-3-ylethynyl]-benzenesulfonamide]	246 to 247
COc1ccc(C#Cc2cnn3c(C(F)F)cc(-c4ccc(C(F)(F)F)cc4)nc23)cc1S(=O)(=O)NC(C)(C)CO [Example 43, 5-[7-Difluoromethyl-5-(4-trifluoromethyl-phenyl)-pyrazolo[1,5-a]pyrimidin-3-ylethynyl]-N-(2-hydroxy-1,1-dimethyl-ethyl)-2-methoxy-benzenesulfonamide]	178 to 180
FC(F)(F)c1ccc(-c2cc(C(F)(F)F)n3ncc(C#Cc4cncnc4)c3n2)cc1 [Example 44, 3-Pyrimidin-5-ylethynyl-7-trifluoromethyl-5-(4-trifluoromethyl-phenyl)-pyrazolo[1,5-a]pyrimidine]	175
